Measured values taken from PMC12693523, “Aldose Reductase Inhibition by Orthosiphon stamineus Extracts and Constituents Suggests Antioxidant Potential” (Molecules, 2025).

Molecular target: T1, aldose reductase (AKR1B1) (Homo sapiens, UniProt P15121)
T1 construct: recombinant human AKR1B1 protein (His Tag)
Assay: NADPH consumption at […] nm with DL-glyceraldehyde, recombinant enzyme
Format: biochemical

Compound	IC50 [µM]
O=C(/C=C/c1ccc(O)c(O)c1)O[C@H](Cc1ccc(O)c(O)c1)C(=O)O [RA, rosmarinic acid]	41.4 ± 0.04
COc1ccc(-c2cc(=O)c3c(O)c(OC)c(OC)cc3o2)cc1O [EUP, eupatorin]	203 ± 0.24
